For orientation: melting point means the temperature of the solid-liquid transition.

Each structure is given as a SMILES string.

`COc1ccc(SCCSc2ccc(OC)cc2)cc1` displayed a melting point of 108 to 110 °C.

On to `CC(=C1SC(=O)NC1=O)c1ccc(OCCOc2c(-c3ccc(F)c(F)c3)n(C)c3ccccc3c2=O)cc1`, for which the melting point fell in the range of 248 to 250 °C.

`OP(O)C(NC(c1ccccc1)c1ccccc1)c1cccs1` (stereo not given) yielded a melting point of 201 °C.

`O=C(O)CNC(=O)c1c(O)n(C2CCCCC2)c(=O)n(C2CCCC2)c1=O` gave a melting point of 222 to 224 °C.

`CCOCCC(=O)C1CCC2C3CCC4CC(O)CCC4(C)C3C(=O)CC12C` (stereo not given) had a melting point of 126 to 130 °C.

In turn, `OC1(c2ccc(F)cc2)CCN(CCCc2noc3cc(F)ccc23)CC1` displayed a melting point of 100 to 101 °C.

Molecule `CC(O)c1ccc(Cl)c(Cl)c1Cl` (stereo not given) yielded a melting point of 87 to 89 °C.

Turning to `COc1cc(-n2c(=O)cc(C(F)(F)F)n(N)c2=O)ccc1C#N`, the melting point is above 230 °C.

As to `CCOC(=O)C1=CC2(CCC1S(=O)(=O)Nc1ccc(F)cc1Cl)OCCCO2` (stereo not given), the melting point lay in the range of 120 to 121 °C.

Consider `CSC(Oc1cc(C)c(Br)c(C)c1)C(=O)NC(C)(C)C` (stereo not given), for which the melting point fell in the range of 123 to 125 °C.

Regarding `Cc1nc2c(OCc3c(Cl)cc(C(O)c4ccccc4)cc3Cl)cccn2c1Br` (stereo not given), the melting point lay within 178 to 179 °C.

`COc1ccc(C(=O)C2=C(O)C(=O)N(c3ccc(C)nn3)C2c2ccc(OC(F)(F)F)cc2)cc1` (stereo not given) came in with a melting point of 265 °C.

The molecule `Nc1ccc(I)cc1C(=O)c1ccccc1Cl` gave a melting point of 120 to 122 °C.

In turn, `CN1CCN(c2cc3c(cc2F)c(=O)c(C(=O)O)cn3C2CC2)CC1c1ccsc1` (stereo not given) displayed a melting point of 230 °C.

In the case of `CCS(=O)(=O)N1CCN(c2ccc(NC(=O)c3cc(=O)c4cc(F)cc(N5CCN(C)CC5)c4o3)cc2)CC1`, the melting point was in the range of 233 to 234 °C.

On to `COC(=O)c1ccn2ccnc2c1`, for which the melting point came out at 143 °C.

In turn, `N#Cc1cnc2sc(-c3ccccc3)cc2c1Cl` came in with a melting point of 202 to 204 °C.

In turn, `COc1ccc(-c2[nH]nc3c2C(=O)c2c(NC(=O)CN4CCC(N)CC4)cccc2-3)cc1` displayed a melting point above 300 °C.

Turning to `O=C(O)c1coc2c(Cl)cc(Cl)cc2c1=O`, the melting point was determined as 196 °C.

`O=[N+]([O-])CSc1ccc(Oc2ccccc2)cc1` showed a melting point of 100 to 102 °C.

Molecule `Cc1ccc(-c2cc(NCCNc3cc(-c4ccc(C)cc4)[nH]n3)n[nH]2)cc1` showed a melting point of 179 °C.

Regarding `Cc1oc(-c2ccccc2)nc1COc1ccc(OCc2ncccc2CC(=O)O)cc1`, the melting point lay in the range of 126 to 127 °C.

With `CC(C)c1cccc(C(C)C)c1N1C(=O)c2ccccc2C1=O`, the melting point is 172 °C.

The molecule `CN(C)CCCn1c2c(c3cc(Br)ccc31)CCS(=O)(=O)CCC2` returned a melting point of 135 to 137 °C.

`CN1OCCN(c2ccc(Cl)cc2Cl)C1=O` showed a melting point of 94 to 95 °C.

Take `COc1cc(OC)cc(C(Cc2ccc(OC)c(OC)c2)=NNS(=O)(=O)c2ccc(C)cc2)c1`: the melting point fell in the range of 132 to 133 °C.

The molecule `CN1CC(O)C(O)C(O)C1CO` (stereo not given) showed a melting point of 142 to 143 °C.

In the case of `Cc1oc(-c2ccco2)nc1COc1ccc(C=O)cn1`, the melting point lay in the range of 139 to 140 °C.

For `Cc1c(-c2cccnc2)n(CCCCCCCC(=O)O)c2ccccc12`, the melting point was 110 to 113 °C.

Molecule `COc1ccc(-c2nc(Sc3ccc(C)cc3)n(Cc3ccccc3)c2-c2ccc(OC)cc2)cc1` displayed a melting point of 115 to 117 °C.

The molecule `CC(C)(F)CC(=O)c1cc(C(C)(C)C)c(O)c(C(C)(C)C)c1` came in with a melting point of 94 °C.

Turning to `COc1ccc(C(=O)c2cc([N+](=O)[O-])ccc2N2CCC(C)CC2)cc1`, the melting point came out at 119 °C.

As to `CCN1CCN(Cc2ccc(C(=O)Nc3ccc(C)c(Nc4nccc(-c5cccnc5)n4)c3)cc2)CC1`, the melting point amounted to 210 °C.

The molecule `Cc1nc2ccc(N3CCN(CCCC(=O)c4ccc(F)cc4)CC3)nc2nc1C` displayed a melting point of 155 to 156 °C.

With `CC(C)(C)C(=O)Nc1ccc(F)cc1`, the melting point was 124 to 125 °C.

As for `Cc1cc(C2(C(F)(F)F)CC(c3ccc(S(C)=O)cc3)=NO2)ccc1N` (stereo not given), the melting point lay in the range of 68.5 to 77 °C.

`COC(=O)c1ncoc1-c1cc(OC)c(OC)c(OC)c1` returned a melting point of 175 to 176 °C.

`COc1ccc2c(c1)CCC1C2CCC2(C)C(O)CC(C)(C)C12` (stereo not given) came in with a melting point of 87 to 91 °C.

`CSC(C(=O)O)c1ccco1` (stereo not given): the melting point was 62 to 62.5 °C.

For the molecule `COC(=O)c1cccc(-c2cccc3c2nc(N(C)c2cccc(C(F)(F)F)c2)n3C)c1`, the melting point fell in the range of 148 to 149 °C.

Turning to `O=c1cc(-c2ccccc2SCc2ccccc2)[nH]c2ccc(Cl)cc12`, the melting point lay in the range of 198 to 202 °C.

In turn, `CC1CC(=O)NN=C1c1ccc(NC(=O)CCNCC(O)C(Cc2ccccc2)Oc2ccc(CCOCC3CC3)cc2)cc1` (stereo not given) showed a melting point of 125 to 128 °C.

In the case of `CCOC(=O)C(=C1SC(=S)N(CC(=O)O)C1=O)c1csc(NC(C)=O)n1`, the melting point lay within 292 to 296 °C.

`CCCCCCCCCCc1cc2c(s1)-n1c(C)nnc1CN=C2c1ccccc1C` displayed a melting point of 61 to 63 °C.

As for `O=C1c2ccc(Cl)cc2CC1S(=O)(=O)c1ccccc1` (stereo not given), the melting point amounted to 133 °C.

In the case of `N#CN1CCC2(CC1)CN(c1ccc(Cl)cc1)c1ccccc12`, the melting point was in the range of 178 to 180 °C.

Consider `OCC(CBr)(CBr)CBr`, for which the melting point lay in the range of 67 to 69 °C.

`O=Cc1cccc(C(CC2=NCCN2)c2ccccn2)c1` (stereo not given) showed a melting point of 138 to 139 °C.

Take `CCC(=O)c1ccc2c(c1)C(C(Cl)(Cl)Cl)OC(C(Cl)(Cl)Cl)O2` (stereo not given): the melting point lay in the range of 96 to 97 °C.

The molecule `C[C@@H]1CN(c2ccc([N+](=O)[O-])cc2C#N)C[C@H](C)N1` returned a melting point of 109 to 110 °C.

Regarding `COc1ccc(OC)c2c1CC(O)CC2O` (stereo not given), the melting point worked out at 126 °C.

With `O=C1CCC(=O)N1CC#CCn1ccnc1`, the melting point was 120 to 122 °C.

Molecule `O=c1c2ccccc2nnn1CCCCl` returned a melting point of 69 °C.

On to `COC(=O)c1cc(=NS(=O)(=O)c2ccccc2)c2ccccc2o1`, for which the melting point was in the range of 144 to 146 °C.

`CCOc1cc2c(O)c(Br)cnc2nc1C` displayed a melting point of 266 to 267 °C.

`O=C(N1CCN(c2ccccc2)CC1)N1CC(Oc2ccc(F)cc2)C1` returned a melting point of 124 to 125 °C.

`OC1C(COCC(F)(F)F)OC(n2cnc3c(Nc4ccc(F)cc4)ncnc32)C1O` (stereo not given) gave a melting point of 214 to 215 °C.

On to `CC(C)CN1C(=O)C(C)(C)C(=O)Nc2cc(C=O)ccc21`, for which the melting point lay in the range of 154 to 155 °C.

The molecule `COc1ccc(N2CCN(c3c(C)c(C)c4c(c3C)CC(C)(CN3CCOCC3)O4)CC2)cc1` (stereo not given) returned a melting point of 137 to 142 °C.

Molecule `O=C1N(Cc2ccc(OCCO)cc2)c2ccccc2C12COc1cc3c(cc12)OCCO3` (stereo not given) registered a melting point of 196 to 197 °C.

In turn, `COCCCN(C(=O)N(CCCl)N=O)C1(O)C(OCC(C)C)OCC(O)C1O` (stereo not given) had a melting point of 84 to 86 °C.

`O=C(Nc1ccccc1)N1CCc2[nH]cc3c(=O)n(-c4ccc(Cl)cc4)nc-3c2C1`: the melting point was 293 to 295 °C.

`c1ccc(C2OC3(CCOCC3)c3ccccc32)cc1` (stereo not given) had a melting point of 132 to 134 °C.

In the case of `Cc1ccc2c(c1)Nc1ccccc1N=C2N1CCN[C@@H](CCc2ccccc2)C1`, the melting point was in the range of 64 to 80 °C.

Regarding `Cc1c(F)c(F)cc2c(=O)c(C(=O)O)cn(-c3ccc(F)c(O)c3)c12`, the melting point is above 280 °C.

Consider `Cc1oc(-c2ccccc2)nc1CCOc1ccc(CC(C(=O)O)C(=O)N(C)C)cc1` (stereo not given), for which the melting point was 48.5 to 49.7 °C.

Turning to `COc1ccccc1C(c1ccnc2ccccc12)C(C#N)(Cc1cccnc1)C(=O)OC(C)(C)C` (stereo not given), the melting point is 225 to 228 °C.

For `CN(C)CCCCCCNC(=O)c1ccc(-c2cnc3c(c2)N(Cc2ccccc2)C(=O)CN3)cc1`, the melting point is above 200 °C.

Molecule `CCCCc1ccc(CCCCC(COC(C)=O)(COC(C)=O)NC(C)=O)cc1` yielded a melting point of 68 to 71 °C.

Take `CCCSc1nc(N)n(-c2nnc(-c3ccccc3O)s2)n1`: the melting point was in the range of 195 to 198 °C.

With `COCc1nc2c(N)nc3ccccc3c2n1CC(C)(C)OCCS(C)(=O)=O`, the melting point was in the range of 186 to 189 °C.

`O=c1ccn(-c2cccc(S(=O)(=O)c3nc4ccccc4[nH]3)c2)nc1-c1ccnn1-c1ccccc1` gave a melting point of 160 to 161 °C.

The molecule `CCN1C(=O)c2cscc2Nc2ccccc21` returned a melting point of 175 to 177 °C.

Regarding `Cc1nn(C)c(Oc2ccccn2)c1C=O`, the melting point is 56 to 57 °C.

The molecule `O=C1C(=CO)Cc2c1cnn2Cc1ccccc1` came in with a melting point of 171 to 172 °C.

Molecule `Cc1c(Nc2c(C#N)cnc3sc(C4=CCN(S(C)(=O)=O)CC4)cc23)ccc2[nH]ccc12` gave a melting point of 228 °C.

Take `CC1CCC2(CC1S(=O)(=O)c1ccccc1)OCCO2` (stereo not given): the melting point was in the range of 105 to 106 °C.

As to `CC(=O)Nc1nc(-c2cc(Cl)nc(Cl)c2)cs1`, the melting point is 301 °C.

In the case of `Cc1c(NC(=O)OC(C)(C)C)cc2c(c1C)OC(C)(C)C2=O`, the melting point was in the range of 154 to 155 °C.

`Cc1nnc(-c2ccc(C)c(Br)c2)o1` gave a melting point of 91 to 93 °C.

Regarding `CC(C)(C)C1CCC(OO)(OO)CC1`, the melting point is 83 to 84 °C.

With `Nc1ccc(CS(=O)(=O)CCO)c(CS(=O)(=O)CCO)c1`, the melting point lay within 168 to 171 °C.

Molecule `OCCC1(c2ccc(Cl)c(Cl)c2)CNCCO1` (stereo not given) registered a melting point of 90 to 91 °C.

As for `O=S(CCCCCOc1ccc(C2=C(c3ccccc3)CCCc3cc(O)ccc32)cc1)CCCC(F)(F)F` (stereo not given), the melting point stood at 145 °C.

Take `CC(C(=O)NCC(F)(F)C(F)(F)F)C(=O)NC1C(=O)Nc2cc(F)ccc2OC1C` (stereo not given): the melting point lay within 215 to 216 °C.

`Cc1c(-c2ccc(C(F)(F)F)cc2)n(Cc2ccc(OCCN3CCCCC3)cc2)c2ccc(O)cc12`: the melting point stood at 174 °C.

`CCC(O)(c1ccc(OCCCc2ccccc2)cc1)c1ccccc1OC` (stereo not given): the melting point fell in the range of 75 to 76 °C.

In the case of `SCC1=NC2CCCCC2N1` (stereo not given), the melting point is 125 to 129 °C.

`Cc1ccc(-n2cc(C)cc2-c2ccc(S(N)(=O)=O)cc2)cc1`: the melting point lay within 144 to 147 °C.

With `c1ccc2c(c1)OCCc1c-2n(Cc2ccc(OCCCN3CCCCC3)cc2)c2ccccc12`, the melting point fell in the range of 129 to 130 °C.

Source of the values: a melting point compilation (Tetko et al.; mined from patent text by program, amines drawn as free bases though some values may be those of a salt).
